Laboratory results as given in ChEMBL document CHEMBL6074653, “Reversal of insulin resistance to combat type 2 diabetes mellitus by newer thiazolidinedione's in fructose induced insulin resistant rats” (Eur J Med Chem, 2024).
Active and inactive are the calls of the source. The rule behind the calls is not given here.

Key:
[1] = test system: Rattus norvegicus; experiment: Anti-diabetic activity in fructose-treated male Wistar rat assessed as increase in HDL level at 30 mg/kg, po administered for 15 days (reference value: 25.35 +/-2.03 mg/dL); type: functional; settings: time 15 day
[2] = test system: Rattus norvegicus; experiment: Anti-diabetic activity in fructose-treated male Wistar rat assessed as increase in SOD level in liver at 30 mg/kg, po administered for 15 days (reference value: 13.25 +/-1.35 U/ml); type: functional; settings: time 15 day
[3] = test system: Rattus norvegicus; experiment: Anti-diabetic activity in fructose-treated male Wistar rat assessed as ballooning degeneration in liver 30 mg/kg, po administered for 15 days by H and E staining based analysis; type: functional, organism-based; settings: time 15.0 day
[4] = Tmax in male Wistar rat at 30 mg/kg, po measured upto 24 hrs; type: ADME, organism-based; settings: in vivo
[5] = AUC (0 to t) in male Wistar rat at 30 mg/kg, po measured upto 24 hrs; type: ADME, organism-based; settings: in vivo
[6] = test system: Rattus norvegicus; experiment: Anti-diabetic activity in fructose-treated male Wistar rat assessed as decrease in SGOT level at 30 mg/kg, po administered for 15 days (reference value: […]); type: functional; settings: time 15 day
[7] = test system: Rattus norvegicus; experiment: Anti-diabetic activity in fructose-treated male Wistar rat assessed as decrease in fasting blood glucose level at 30 mg/kg, po administered for 15 days; type: functional, organism-based; settings: time 15.0 day
[8] = test system: Rattus norvegicus; experiment: Anti-diabetic activity in fructose-treated male Wistar rat assessed as decrease in adipocyte count 30 mg/kg, po administered for 15 days by H and E staining based analysis; type: functional, organism-based; settings: time 15.0 day
[9] = test system: Rattus norvegicus; experiment: Anti-diabetic activity in fructose-treated male Wistar rat assessed as steatosis in liver 30 mg/kg, po administered for 15 days by H and E staining based analysis; type: functional, organism-based; settings: time 15.0 day
[10] = test system: Rattus norvegicus; experiment: Anti-diabetic activity in fructose-treated male Wistar rat assessed as increase in glycogen content in skeletal muscle at 30 mg/kg, po administered for 15 days; type: functional, organism-based; settings: time 15.0 day
[11] = test system: Rattus norvegicus; experiment: Anti-diabetic activity in fructose-treated male Wistar rat assessed as increase in CAT level in liver at 30 mg/kg, po administered for 15 days (reference value: 27.65 +/-1.02 U/min); type: functional; settings: time 15 day
[12] = test system: L6; experiment: Induction of glucose uptake in rat L6 cells incubated for 24 hrs by GOD-POD technique; type: functional; design: concentration or dose not given beside the values
[13] = Drug recovery in rat plasma at 50 mg/kg, po by HPLC analysis; type: ADME, organism-based; settings: in vivo
[14] = Cmax in male Wistar rat at 30 mg/kg, po measured upto 24 hrs; type: ADME, organism-based; settings: in vivo
[15] = Drug recovery in rat plasma at 150 mg/kg, po by HPLC analysis; type: ADME, organism-based; settings: in vivo
[16] = Acute toxicity in male Wistar rat assessed as body weight gain at 10 mg/kg, po administered for 15 days; type: organism-based; settings: in vivo, 360 h, time 15 day
[17] = test system: Rattus norvegicus; experiment: Anti-diabetic activity in Wistar rat Diaphragm assessed as […] at 30 mg/kg, po administered for 15 days; type: functional, organism-based; settings: time 15.0 day
[18] = test system: Rattus norvegicus; experiment: Anti-diabetic activity in fructose-treated male Wistar rat assessed as decrease in insulin level at 30 mg/kg, po administered for 15 days by insulin tolerance test; type: functional, organism-based; settings: time 15.0 day
[19] = Acute toxicity in male Wistar rat assessed as change in body weight at 10 mg/kg, po administered for 15 days; type: organism-based; settings: in vivo, 360 h, time 15 day
[20] = test system: Rattus norvegicus; experiment: Anti-diabetic activity in fructose-treated male Wistar rat assessed as decrease in VLDL level at 30 mg/kg, po administered for 15 days (reference value: 28 +/-0.28 mg/dL); type: functional; settings: time 15 day
[21] = test system: Rattus norvegicus; experiment: Anti-diabetic activity in fructose-treated male Wistar rat assessed as sinusoidal congestion in liver 30 mg/kg, po administered for 15 days by H and E staining based analysis; type: functional, organism-based; settings: time 15.0 day
[22] = biological target: T1, Peroxisome proliferator-activated receptor gamma (Homo sapiens) (UniProt P37231); experiment: Agonist activity at PPARgamma in human HepG2 cells assessed as increase in PPARgamma transcription factor expression by ELISA analysis; type: cell-based; settings: filed as agonist, dose 6.25-50 µM
T1 sequence (whole entry): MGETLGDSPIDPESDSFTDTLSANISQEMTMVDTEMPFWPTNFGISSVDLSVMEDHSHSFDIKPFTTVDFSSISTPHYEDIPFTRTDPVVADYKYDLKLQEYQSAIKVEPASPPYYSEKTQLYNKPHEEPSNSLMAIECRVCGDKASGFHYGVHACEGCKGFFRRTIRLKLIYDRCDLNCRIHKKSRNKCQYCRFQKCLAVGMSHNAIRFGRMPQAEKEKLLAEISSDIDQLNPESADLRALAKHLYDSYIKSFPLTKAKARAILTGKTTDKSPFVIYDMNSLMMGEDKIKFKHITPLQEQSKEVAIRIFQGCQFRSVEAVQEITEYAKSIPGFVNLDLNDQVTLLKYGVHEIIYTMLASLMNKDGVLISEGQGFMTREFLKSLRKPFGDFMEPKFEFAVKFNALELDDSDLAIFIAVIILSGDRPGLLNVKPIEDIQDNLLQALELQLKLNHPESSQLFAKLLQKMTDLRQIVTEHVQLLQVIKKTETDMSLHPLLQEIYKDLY

[23] = test system: Rattus norvegicus; experiment: Anti-diabetic activity in fructose-treated male Wistar rat assessed as decrease in MDA level in liver at 30 mg/kg, po administered for 15 days (reference value: 294.65 +/-11.78 nM/mg ); type: functional; settings: time 15 day
[24] = test system: Rattus norvegicus; experiment: Anti-diabetic activity in fructose-treated male Wistar rat assessed as increase in HOMO-IR level at 30 mg/kg, po administered for 15 days; type: functional, organism-based; settings: time 15.0 day
[25] = test system: Rattus norvegicus; experiment: Anti-diabetic activity in fructose-treated male Wistar rat assessed as decrease in triglycerides level at 30 mg/kg, po administered for 15 days (reference value: 140.03 +/-3.55 mg/dL); type: functional; settings: time 15 day
[26] = Drug recovery in rat plasma at 100 mg/kg, po by HPLC analysis; type: ADME, organism-based; settings: in vivo
[27] = test system: Rattus norvegicus; experiment: Anti-diabetic activity in fructose-treated male Wistar rat assessed as increase in LDL level at 30 mg/kg, po administered for 15 days (reference value: 40.32 +/-1.08 mg/dL); type: functional; settings: time 15 day
[28] = Half life in male Wistar rat at 30 mg/kg, po measured upto 24 hrs; type: ADME, organism-based; settings: in vivo
[29] = test system: Rattus norvegicus; experiment: Anti-diabetic activity in fructose-treated male Wistar rat assessed as increase in GSH level in liver at 30 mg/kg, po administered for 15 days (reference value: 39.98 +/-0.86 nM/mg ); type: functional; settings: time 15 day
[30] = test system: Rattus norvegicus; experiment: Anti-diabetic activity in fructose-treated male Wistar rat assessed as increase in total cholesterol level at 30 mg/kg, po administered for 15 days (reference value: 93.68 +/-1.68 mg/dL); type: functional; settings: time 15 day
[31] = test system: Rattus norvegicus; experiment: Anti-diabetic activity in fructose-treated male Wistar rat assessed as increase in glycogen content in liver at 30 mg/kg, po administered for 15 days; type: functional, organism-based; settings: time 15.0 day
[32] = AUC (0 to infinity) in male Wistar rat at 30 mg/kg, po measured upto 24 hrs; type: ADME, organism-based; settings: in vivo
[33] = test system: Rattus norvegicus; experiment: Anti-diabetic activity in fructose-treated male Wistar rat assessed as kupffer cell hyperplasia in liver 30 mg/kg, po administered for 15 days by H and E staining based analysis; type: functional, organism-based; settings: time 15.0 day
[34] = Retention time of the compound by HPLC analysis; type: physicochemical
[35] = test system: Rattus norvegicus; experiment: Anti-diabetic activity in fructose-treated male Wistar rat assessed as decrease in SGPT level at 30 mg/kg, po administered for 15 days (reference value: […]); type: functional; settings: time 15 day
[36] = test system: Rattus norvegicus; experiment: Anti-diabetic activity in fructose-treated male Wistar rat assessed as lymphocyte infiltration in liver 30 mg/kg, po administered for 15 days by H and E staining based analysis; type: functional, organism-based; settings: time 15.0 day
[37] = test system: Rattus norvegicus; experiment: Anti-diabetic activity in fructose-treated male Wistar rat assessed as change in HOMO-IR level at 30 mg/kg, po administered for 15 days; type: functional, organism-based; settings: time 15.0 day

| SMILES | Activity [1] [mg/dL] | Activity [2] [U/ml] | Activity [3] | Tmax [4] [h] | AUC(0-t) at 24 h [5] [ng·h/mL] | Activity [6] [U/L] | Activity [7] | Activity [8] | Activity [9] | Activity [10] | Activity [11] [U/min] | Activity [12] [%] | Drug recovery [13] [%] | Cmax [14] [ng/mL] | Drug recovery [15] [%] | Activity [16] | Activity [17] | Activity [18] | Activity [19] | Activity [20] [mg/dL] | also measured |
| --- | --- | --- | --- | --- | --- | --- | --- | --- | --- | --- | --- | --- | --- | --- | --- | --- | --- | --- | --- | --- | --- |
| N#C[C@H]1CCCN1C(=O)CN1C(=O)S/C(=C\c2ccc(F)cc2)C1=O | 51.39 | 20.36 | Active | 2 | 5620 | 46.36 | Active | Active | Active | Active | 48.65 | 74.58 | 99.96 | 926 | 98.36 | Non-toxic | Active | Active | Non-toxic | 17.23 | Activity [21]: Active; Activity [22]: Dose-dependent-effect; Activity [23]: 224.65 nM/mg; Activity [24]: Active; Activity [25]: 86.15 mg/dL; Drug recovery [26]: 99.58%; Activity [27]: 42.74 mg/dL; half-life [28]: 3.96 h; Activity [29]: 58.63 nM/mg; Activity [30]: 112.3 mg/dL; Activity [31]: Active; AUC(0-inf) [32]: 6240 ng·h/mL; Activity [33]: Active; Retention_time [34]: 6.7 min; Activity [35]: 39.72 U/L; Activity [36]: Active |
| N#C[C@H]1CCCN1C(=O)CN1C(=O)S/C(=C\c2ccc(O)cc2)C1=O | 53.25 | 24.68 | Active | 2.21 | 5980 | 41.32 | Active | Active | Active | Active | 52.36 | 79.29 | 97.1 | 1030 | 96.1 | Non-toxic | Active | Active | Non-toxic | 15.23 | Activity [37]: Active; Activity [21]: Active; Activity [22]: Dose-dependent-effect; Activity [23]: 197.32 nM/mg; Activity [25]: 76.18 mg/dL; Drug recovery [26]: 101%; Activity [27]: 47.8 mg/dL; half-life [28]: 4.21 h; Activity [29]: 61.35 nM/mg; Activity [30]: 114.79 mg/dL; Activity [31]: Active; AUC(0-inf) [32]: 6620 ng·h/mL; Activity [33]: Active; Retention_time [34]: 4.4 min; Activity [35]: 37.12 U/L; Activity [36]: Active |
